Measurements from patent US7994209B2, “3-phenoxymethylpyrrolidine compounds” (Theravance, Inc., priority 2009, dated 2011).
pKi: −log10 of the molar value. Marks after values point to notes of the source that are not given here.

Key:
hSERT [1] = target: T1, hSERT (Homo sapiens, UniProt P31645); assay: fluorescence-based serotonin reuptake inhibition assay (Tsuruda et al. 2010; data indicated by an asterisk); type: cell-based; set-up: expressed in transfected cells; host or cells: HEK-293; settings: fluorescence-based assay (values with asterisk); for IC50: read-out: SERT pIC50 (converted)
hNET [2] = target: T2, hNET (Homo sapiens, UniProt P23975); assay: fluorescence-based norepinephrine reuptake inhibition assay (Tsuruda et al. 2010; data indicated by an asterisk); type: cell-based; set-up: expressed in transfected cells; host or cells: HEK-293; settings: norepinephrine reuptake inhibition, fluorescence-based assay (values with asterisk); for IC50: read-out: NET pIC50 (converted)
hSERT [3] = target: T1, hSERT; assay: hSERT membrane radioligand binding assay (3H-citalopram), Assay 1; settings: SERT pKi, hSERT HEK-293 membranes, 1.0 nM 3H-citalopram; values given as lower bounds
Procedure: Membrane radioligand binding assays were used to measure inhibition of labeled ligand (^3H-citalopram or ^3H-nisoxetine or ^3H-WIN35428) binding to membranes prepared from cells expressing the respective human recombinant transporter (hSERT or hNET or hDAT) in order to determine the pKi values of test compounds at the transporters.
Recombinant human embryonic kidney (HEK-293) derived cell lines stably transfected with hSERT or hNET, respectively, were grown in DMEM medium supplemented with 10% dialyzed FBS (for hSERT) or FBS (for hNET), 100 μg/mL penicillin, 100 μg/mL streptomycin, 2 mM L-glutamine and 250 μg/mL of the aminoglycoside antibiotic G418, in a 5% CO2 humidified incubator at 37° C. When cultures reached 80% confluence, the cells were washed thoroughly in PBS (without Ca^2+ and Mg^2+) and lifted with 5 mM EDTA in PBS. Cells were pelleted by centrifugation, resuspended in lysis buffer (10 mM Tris-HCl, pH7.5 containing 1 mM EDTA), homogenized, pelleted by centrifugation, then resuspended in 50 mM Tris-HCl, pH 7.5 and 10% sucrose at 4° C. Protein concentration of the membrane suspension was determined using a Bio-Rad Bradford Protein Assay kit. Membranes were snap frozen and stored at −80° C.
Binding assays were performed in a 96-well assay plate in a total volume of 200 μl assay buffer (50 mM Tris-HCl, 120 mM NaCl, 5 mM KCl, pH 7.4) with 0.5, 1, and 3 μg membrane protein, for SERT, NET and DAT, respectively.
Stock solutions (10 mM in DMSO) of test compound were prepared and serial dilutions made using Dilution Buffer (50 mM Tris-HCl, 120 mM NaCl, 5 mM KCl, pH 7.4, 0.1% BSA, 400 μM ascorbic acid).
Following a 60 minute incubation at 22° C. (or a period sufficient to reach equilibrium), the membranes were harvested by rapid filtration over a 96-well UniFilter GF/B plate, pretreated with 0.3% polyethyleneimine, and washed 6 times with 300 μl wash buffer (50 mM Tris-HCl, 0.9% NaCl, pH 7.5 at 4° C.). Plates were dried overnight at room temperature, approximately 45 μl of MicroScint™-20 (Perkin Elmer) added and bound radioactivity quantitated via liquid scintillation spectroscopy. Inhibition curves and saturation isotherms were analyzed using GraphPad Prism Software package (GraphPad Software, Inc., San Diego, Calif.). IC50 values were generated from concentration response curves using the Sigmoidal Dose Response (variable slope) algorithm in Prism GraphPad.

hNET [4] = target: T2, hNET; assay: hNET membrane radioligand binding assay (3H-nisoxetine), Assay 1

T2 sequence (P23975 whole entry): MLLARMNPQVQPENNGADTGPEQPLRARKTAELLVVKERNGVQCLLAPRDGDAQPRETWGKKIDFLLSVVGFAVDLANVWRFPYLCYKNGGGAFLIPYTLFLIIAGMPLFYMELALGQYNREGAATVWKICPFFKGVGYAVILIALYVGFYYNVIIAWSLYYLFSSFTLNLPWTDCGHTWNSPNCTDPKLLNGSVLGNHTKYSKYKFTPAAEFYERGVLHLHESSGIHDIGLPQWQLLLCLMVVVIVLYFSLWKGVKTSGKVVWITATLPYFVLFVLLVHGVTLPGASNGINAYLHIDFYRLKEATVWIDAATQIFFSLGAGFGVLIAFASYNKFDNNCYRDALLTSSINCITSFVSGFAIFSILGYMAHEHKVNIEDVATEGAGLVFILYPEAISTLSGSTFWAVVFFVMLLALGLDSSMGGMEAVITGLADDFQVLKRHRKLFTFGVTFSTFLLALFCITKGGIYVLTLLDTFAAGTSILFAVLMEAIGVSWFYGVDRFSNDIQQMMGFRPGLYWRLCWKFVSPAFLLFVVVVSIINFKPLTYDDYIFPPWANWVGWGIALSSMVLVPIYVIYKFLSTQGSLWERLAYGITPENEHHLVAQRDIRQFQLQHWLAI
T1 sequence (P31645 whole entry): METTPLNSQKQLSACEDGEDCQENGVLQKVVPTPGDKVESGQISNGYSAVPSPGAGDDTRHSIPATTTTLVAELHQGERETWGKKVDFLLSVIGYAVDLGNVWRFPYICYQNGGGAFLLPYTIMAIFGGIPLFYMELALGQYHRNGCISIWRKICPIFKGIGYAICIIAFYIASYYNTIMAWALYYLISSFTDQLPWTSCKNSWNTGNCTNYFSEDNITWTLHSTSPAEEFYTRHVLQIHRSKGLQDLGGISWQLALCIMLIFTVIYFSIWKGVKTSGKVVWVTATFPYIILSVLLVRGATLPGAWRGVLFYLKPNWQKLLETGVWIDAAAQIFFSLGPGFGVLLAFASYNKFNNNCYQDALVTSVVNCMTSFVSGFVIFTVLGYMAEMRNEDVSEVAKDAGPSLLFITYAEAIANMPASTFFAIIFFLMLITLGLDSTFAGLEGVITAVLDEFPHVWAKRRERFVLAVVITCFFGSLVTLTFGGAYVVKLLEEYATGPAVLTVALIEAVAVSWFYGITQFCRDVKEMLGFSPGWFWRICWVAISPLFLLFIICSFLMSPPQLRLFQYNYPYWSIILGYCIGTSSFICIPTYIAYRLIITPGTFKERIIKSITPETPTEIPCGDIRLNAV

SMILES	IC50 (hSERT [1]) [nM]	IC50 (hNET [2]) [nM]	pKi (hSERT [3])	pKi (hNET [4])	SERT pIC50 (hSERT [1])	NET pIC50 (hNET [2])
CCC[C@@H](Oc1cc(Cl)cc(Cl)c1)[C@@H]1CCNC1 [Example 4-9, (R)-3-[(R)-1-(3,5-Dichlorophenoxy)butyl]pyrrolidine]	≤ 10	≤ 10	≥ 8.00	≥ 8.00		
CCC[C@@H](Oc1cccc(Cl)c1C(F)(F)F)[C@@H]1CCNC1 [Example 4-71, (R)-3-[(R)-1-(3-Chloro-2-trifluoromethylphenoxy)butyl]pyrrolidine]	≤ 100	≤ 100	≥ 8.00	≥ 8.00		
CC(C)[C@H](Oc1c(Cl)cccc1Cl)[C@H]1CCNC1 [Example 6-28, (S)-3-[(S)-1-(2,6-Dichlorophenoxy)-2-methylpropyl]pyrrolidine]	≤ 100	≤ 10	≥ 8.00	≥ 8.00		
CC(C)[C@H](Oc1cccc(Cl)c1C(F)(F)F)[C@H]1CCNC1 [Example 6-49, (S)-3-[(S)-1-(3-Chloro-2-trifluoromethylphenoxy)-2-methylpropyl]pyrrolidine]	≤ 100	≤ 10	≥ 8.00	≥ 8.00		
CC(C)[C@H](Oc1ccc(Cl)cc1C(F)(F)F)[C@H]1CCNC1 [Example 6-51, (S)-3-[(S)-1-(4-Chloro-2-trifluoromethylphenoxy)-2-methylpropyl]pyrrolidine]	≤ 100	≤ 10	≥ 8.00	≥ 8.00		
CC(C)C[C@H](Oc1cccc(Cl)c1Cl)[C@H]1CCNC1 [Example 9, (S)-3-[(S)-1-(2,3-Dichlorophenoxy)-3-methylbutyl]pyrrolidine]	≤ 10	≤ 10	≥ 8.00	≥ 8.00		
CC(C)C[C@H](Oc1cccc(Cl)c1Cl)[C@@H]1CCNC1 [Example 10-24, (R)-3-[(S)-1-(2,3-Dichlorophenoxy)-3-methylbutyl]pyrrolidine]	≤ 10	≤ 10	≥ 8.00	≥ 8.00		
CC(C)C[C@H](Oc1cccc(F)c1Cl)[C@@H]1CCNC1 [Example 10-28, (R)-3-[(S)-1-(2-Chloro-3-fluorophenoxy)-3-methylbutyl]pyrrolidine]	≤ 10	≤ 10	≥ 8.00	≥ 8.00		
Cc1c(Cl)cccc1O[C@@H](CC(C)C)[C@@H]1CCNC1 [Example 10-32, (R)-3-[(S)-1-(3-Chloro-2-methylphenoxy)-3-methylbutyl]pyrrolidine]	≤ 10	≤ 10	≥ 8.00	≥ 8.00		
Cc1c(Cl)cccc1O[C@@H](CC(C)C)[C@H]1CCNC1 [Example 10-33, (S)-3-[(S)-1-(3-Chloro-2-methylphenoxy)-3-methylbutyl]pyrrolidine]	≤ 10	≤ 10	≥ 8.00	≥ 8.00		
CC(C)C[C@@H](Oc1c(Cl)cccc1Cl)[C@H]1CCNC1 [Example 10-55, (S)-3-[(R)-1-(2,6-Dichlorophenoxy)-3-methylbutyl]pyrrolidine]	≤ 100	≤ 10	≥ 8.00	≥ 8.00		
CC(C)C[C@H](Oc1c(Cl)cccc1Cl)[C@@H]1CCNC1 [Example 10-56, (R)-3-[(S)-1-(2,6-Dichlorophenoxy)-3-methylbutyl]pyrrolidine]	≤ 100	≤ 100	≥ 8.00	≥ 8.00		
CC(C)C[C@H](Oc1cc(Cl)cc(Cl)c1)[C@@H]1CCNC1 [Example 10-80, (R)-3-[(S)-1-(3,5-Dichlorophenoxy)-3-methylbutyl]pyrrolidine]	≤ 10	≤ 10	≥ 8.00	≥ 8.00		

Further lines, results first:

IC50 (hSERT [1]) [nM]	IC50 (hNET [2]) [nM]	pKi (hSERT [3])	pKi (hNET [4])	SERT pIC50 (hSERT [1])	NET pIC50 (hNET [2])	SMILES
≤ 10	≤ 10					CC(C)C[C@H](Oc1cccc2ccccc12)[C@H]1CCNC1 [Example 14-8, (S)-3-[(S)-3-Methyl-1-(naphthalen-1-yloxy)butyl]pyrrolidine]
≤ 10	≤ 10					CC(C)C[C@@H](Oc1cccc2ccccc12)[C@H]1CCNC1 [Example 14-9, (S)-3-[(R)-3-Methyl-1-(naphthalen-1-yloxy)butyl]pyrrolidine]
≤ 100	≤ 10	≥ 8.00	≥ 8.00			Clc1ccccc1O[C@@H](C1CC1)[C@H]1CCNC1 [Example 16-1, (S)-3-[(S)-(2-Chlorophenoxy)cyclopropylmethyl]pyrrolidine]
≤ 100	≤ 10	≥ 8.00	≥ 8.00			Clc1ccccc1O[C@H](C1CC1)[C@H]1CCNC1 [Example 16-2, (S)-3-[(R)-(2-Chlorophenoxy)cyclopropylmethyl]pyrrolidine]
≤ 10	≤ 10	≥ 8.00	≥ 8.00			Fc1c(Cl)cccc1O[C@@H](C1CC1)[C@H]1CCNC1 [Example 16-11, (S)-3-[(S)-(3-Chloro-2-fluorophenoxy)cyclopropylmethyl]pyrrolidine]
≤ 10	≤ 10	≥ 8.00	≥ 8.00			Cc1cccc(O[C@@H](C2CC2)[C@H]2CCNC2)c1C [Example 16-12, (S)-3-[(S)cyclopropyl-(2,3-dimethylphenoxy)-methyl]pyrrolidine]
≤ 100	≤ 10	≥ 8.00	≥ 8.00			CCOc1cc(Cl)ccc1O[C@@H](C1CC1)[C@H]1CCNC1 [Example 16-41, (S)-3-[(S)-(4-Chloro-2-ethoxyphenoxy)cyclopropylmethyl]pyrrolidine]
≤ 100	≤ 100	≥ 8.00	≥ 7.00			CCOc1cc(Cl)ccc1O[C@H](C1CC1)[C@H]1CCNC1 [Example 16-42, (S)-3-[(R)-(4-Chloro-2-ethoxyphenoxy)cyclopropylmethyl]pyrrolidine]
≤ 10	≤ 10	≥ 8.00	≥ 8.00			Fc1ccc(O[C@@H](C2CC2)[C@H]2CCNC2)c(F)c1F [Example 16-46, (S)-3-[(S)cyclopropyl-(2,3,4-trifluorophenoxy)methyl]pyrrolidine]
≤ 10	≤ 10	≥ 8.00	≥ 7.00			Fc1ccc(O[C@H](C2CC2)[C@H]2CCNC2)c(F)c1F [Example 16-47, (S)-3-[(R)cyclopropyl-(2,3,4-trifluorophenoxy)methyl]pyrrolidine]
≤ 10	≤ 10					Fc1c(Cl)ccc(O[C@@H](C2CC2)[C@H]2CCNC2)c1F [Example 16-48, (S)-3-[(S)-(4-Chloro-2,3-difluorophenoxy)cyclopropylmethyl]pyrrolidine]
≤ 10	≤ 10					Fc1c(Cl)ccc(O[C@H](C2CC2)[C@H]2CCNC2)c1F [Example 16-49, (S)-3-[(R)-(4-Chloro-2,3-difluorophenoxy)cyclopropylmethyl]pyrrolidine]
≤ 100	≤ 100					Fc1cc(Cl)cc(O[C@@H](C2CC2)[C@H]2CCNC2)c1Cl [Example 16-57, (S)-3-[(S)cyclopropyl-(2,5-dichloro-3-fluorophenoxy)methyl]pyrrolidine]
≤ 100	≤ 100					Cc1cc(Cl)cc(Cl)c1O[C@H](C1CC1)[C@H]1CCNC1 [Example 16-78, (S)-3-[(R)cyclopropyl-(2,4-dichloro-6-methylphenoxy)methyl]pyrrolidine]
≤ 100	≤ 10					COc1cc(Cl)cc(O[C@@H](C2CC2)[C@H]2CCNC2)c1 [Example 16-100, (S)-3-[(S)-(3-Chloro-5-methoxyphenoxy)cyclopropylmethyl]pyrrolidine]
≤ 10	≤ 100					Cc1cc(O[C@@H](C2CC2)[C@H]2CCNC2)cc(C)c1Cl [Example 16-101, (S)-3-[(S)-(4-Chloro-3,5-dimethylphenoxy)cyclopropylmethyl]pyrrolidine]
≤ 10	≤ 10					Clc1cccc(OC(C2CCCC2)C2CCNC2)c1Cl (centres unmarked) [Example 18-1, 3-[Cyclopentyl-(2,3-dichlorophenoxy)methyl]pyrrolidine]
	≤ 100			≧8.0*		Cc1ccc(OC(C2CCCC2)C2CCNC2)c(Cl)c1 (centres unmarked) [Example 18-6, 3-[(2-Chloro-4-methylphenoxy)cyclopentylmethyl]pyrrolidine]
≤ 10	≤ 100					Cc1cc(Cl)ccc1OC(C1CCCC1)C1CCNC1 (centres unmarked) [Example 18-7, 3-[(4-Chloro-2-methylphenoxy)cyclopentylmethyl]pyrrolidine]
≤ 100	≤ 10					Clc1cccc(Cl)c1OC(C1CCCC1)C1CCNC1 (centres unmarked) [Example 18-8, 3-[Cyclopentyl-(2,6-dichlorophenoxy)methyl]pyrrolidine]
≤ 10	≤ 10					Clc1cc(Cl)cc(OC(C2CCCC2)C2CCNC2)c1 (centres unmarked) [Example 18-9, 3-[Cyclopentyl-(3,5-dichlorophenoxy)methyl]pyrrolidine]
≤ 100					≧8.0*	Clc1cc(Cl)cc(OC(C2CCCC2)C2CCNC2)c1 (centres unmarked) [Example 18-10, 3-[Cyclopentyl-(3,5-dichlorophenoxy)methyl]pyrrolidine]
≤ 10	≤ 100					Clc1ccc(OC(C2CCCC2)C2CCNC2)cc1 (centres unmarked) [Example 18-11, 3-[(4-Chlorophenoxy)cyclopentylmethyl]pyrrolidine]
≤ 100	≤ 100					Fc1ccc(OC(C2CCCC2)C2CCNC2)cc1 (centres unmarked) [Example 18-12, 3-[Cyclopentyl-(4-fluorophenoxy)methyl]pyrrolidine]
